PMC7026418, “The kinase polypharmacology landscape of clinical PARP inhibitors” (Scientific Reports, 2020)
Where two headings read alike, the source gives them in different places. Each block holds one compound with its values, some of them ahead of it.

Columns and labels:
NEK1 = biological target: T1, NEK1 (Homo sapiens, UniProt Q96PY6); assay: biochemical; design: DiscoveRx KINOMEscan active site-directed competition binding; percent of control kinase bound to immobilised ligand
T1 sequence (Q96PY6 1-1258): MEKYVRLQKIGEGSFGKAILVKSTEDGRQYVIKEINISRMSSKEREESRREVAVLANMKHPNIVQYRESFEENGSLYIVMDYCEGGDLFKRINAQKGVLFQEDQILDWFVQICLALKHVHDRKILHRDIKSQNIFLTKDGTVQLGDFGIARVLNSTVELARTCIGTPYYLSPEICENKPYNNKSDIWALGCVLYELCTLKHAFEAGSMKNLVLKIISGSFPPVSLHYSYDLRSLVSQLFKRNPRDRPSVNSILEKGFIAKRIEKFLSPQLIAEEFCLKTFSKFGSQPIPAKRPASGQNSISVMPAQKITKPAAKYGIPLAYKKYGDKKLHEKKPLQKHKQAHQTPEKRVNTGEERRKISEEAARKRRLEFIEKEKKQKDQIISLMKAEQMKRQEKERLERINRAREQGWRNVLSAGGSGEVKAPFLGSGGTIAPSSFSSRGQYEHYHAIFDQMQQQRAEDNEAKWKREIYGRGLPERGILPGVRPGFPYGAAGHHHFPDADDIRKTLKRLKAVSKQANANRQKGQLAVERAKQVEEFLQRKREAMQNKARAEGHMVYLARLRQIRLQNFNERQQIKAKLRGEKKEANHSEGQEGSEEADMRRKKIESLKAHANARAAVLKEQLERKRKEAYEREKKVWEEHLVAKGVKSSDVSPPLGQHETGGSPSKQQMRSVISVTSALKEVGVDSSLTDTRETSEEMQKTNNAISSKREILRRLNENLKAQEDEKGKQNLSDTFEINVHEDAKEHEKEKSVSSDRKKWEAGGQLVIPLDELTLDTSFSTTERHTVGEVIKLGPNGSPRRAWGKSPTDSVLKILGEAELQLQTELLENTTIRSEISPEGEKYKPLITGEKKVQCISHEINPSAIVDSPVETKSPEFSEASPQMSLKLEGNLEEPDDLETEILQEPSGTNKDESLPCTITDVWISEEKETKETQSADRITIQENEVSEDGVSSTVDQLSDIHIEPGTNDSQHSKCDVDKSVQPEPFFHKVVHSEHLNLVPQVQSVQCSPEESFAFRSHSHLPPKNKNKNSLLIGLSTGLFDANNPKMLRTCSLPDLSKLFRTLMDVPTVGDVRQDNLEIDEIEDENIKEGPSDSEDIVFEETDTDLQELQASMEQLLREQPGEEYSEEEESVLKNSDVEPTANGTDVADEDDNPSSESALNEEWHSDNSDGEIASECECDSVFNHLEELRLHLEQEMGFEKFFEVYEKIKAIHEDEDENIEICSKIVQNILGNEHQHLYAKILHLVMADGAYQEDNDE

PIK3C2G = biological target: T2, PIK3C2G (Homo sapiens, UniProt O75747); assay: biochemical; design: DiscoveRx KINOMEscan active site-directed competition binding; percent of control kinase bound to immobilised ligand
T2 sequence (O75747 1-1486): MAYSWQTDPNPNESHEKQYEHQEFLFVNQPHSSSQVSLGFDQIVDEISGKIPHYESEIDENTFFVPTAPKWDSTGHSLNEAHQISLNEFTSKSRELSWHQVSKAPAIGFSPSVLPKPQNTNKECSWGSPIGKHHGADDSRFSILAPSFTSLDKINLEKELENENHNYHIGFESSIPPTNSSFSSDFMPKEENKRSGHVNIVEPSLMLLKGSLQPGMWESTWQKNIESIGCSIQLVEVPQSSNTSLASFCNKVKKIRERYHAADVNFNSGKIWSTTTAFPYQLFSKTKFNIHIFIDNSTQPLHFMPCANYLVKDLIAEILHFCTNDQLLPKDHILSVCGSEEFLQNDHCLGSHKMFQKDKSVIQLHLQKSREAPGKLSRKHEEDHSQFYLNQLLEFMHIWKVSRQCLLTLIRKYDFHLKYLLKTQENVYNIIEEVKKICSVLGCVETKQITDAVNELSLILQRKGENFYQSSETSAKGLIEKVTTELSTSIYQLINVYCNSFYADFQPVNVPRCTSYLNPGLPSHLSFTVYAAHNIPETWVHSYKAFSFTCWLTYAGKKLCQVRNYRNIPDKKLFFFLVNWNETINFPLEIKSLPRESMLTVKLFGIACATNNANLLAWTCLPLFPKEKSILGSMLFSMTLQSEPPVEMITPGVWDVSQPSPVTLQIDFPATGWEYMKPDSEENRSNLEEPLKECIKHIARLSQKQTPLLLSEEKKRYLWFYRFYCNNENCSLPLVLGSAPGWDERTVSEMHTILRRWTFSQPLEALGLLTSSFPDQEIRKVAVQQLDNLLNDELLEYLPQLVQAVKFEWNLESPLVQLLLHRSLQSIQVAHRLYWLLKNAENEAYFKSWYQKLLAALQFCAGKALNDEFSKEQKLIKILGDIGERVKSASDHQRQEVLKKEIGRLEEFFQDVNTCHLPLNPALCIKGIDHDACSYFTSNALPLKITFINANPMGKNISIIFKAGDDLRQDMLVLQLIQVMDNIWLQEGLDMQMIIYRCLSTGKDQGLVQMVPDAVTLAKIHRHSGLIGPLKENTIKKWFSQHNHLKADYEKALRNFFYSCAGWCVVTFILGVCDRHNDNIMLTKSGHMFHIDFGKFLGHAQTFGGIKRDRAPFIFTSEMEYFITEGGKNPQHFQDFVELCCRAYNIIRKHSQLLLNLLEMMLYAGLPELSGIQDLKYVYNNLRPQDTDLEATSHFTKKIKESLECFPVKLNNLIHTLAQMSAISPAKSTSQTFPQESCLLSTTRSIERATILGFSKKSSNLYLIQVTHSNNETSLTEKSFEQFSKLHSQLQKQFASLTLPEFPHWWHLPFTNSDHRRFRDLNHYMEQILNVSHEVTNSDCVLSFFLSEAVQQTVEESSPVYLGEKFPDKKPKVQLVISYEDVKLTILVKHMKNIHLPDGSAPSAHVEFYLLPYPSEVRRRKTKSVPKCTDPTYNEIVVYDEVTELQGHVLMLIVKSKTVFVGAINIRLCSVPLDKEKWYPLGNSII

[1] = read-out: Niraparib (MK-4827) / %Ctrl @ 10000nM
[2] = read-out: Rucaparib / %Ctrl @ 10000nM, binding competition, % of control
[3] = read-out: Olaparib / %Ctrl @ 10000nM
[4] = read-out: Talazoparib (BMN 673) / %Ctrl @ 10000nM

Compound: NC(=O)c1cccc2cn(-c3ccc([C@@H]4CCCNC4)cc3)nc12 [Niraparib]
- percent of control binding at 10 µM (NEK1; [1]): 98%
- percent of control binding at 10 µM (PIK3C2G; [1]): 79%

- percent of control binding at 10 µM (NEK1; [2]): 90%
- percent of control binding at 10 µM (PIK3C2G; [2]): 73%
Compound: CNCc1ccc(-c2[nH]c3cc(F)cc4c3c2CCNC4=O)cc1 [Rucaparib]

- percent of control binding at 10 µM (NEK1; [3]): 74%
- percent of control binding at 10 µM (PIK3C2G; [3]): 82%
Compound: O=C(c1cc(Cc2n[nH]c(=O)c3ccccc23)ccc1F)N1CCN(C(=O)C2CC2)CC1 [Olaparib]

- percent of control binding at 10 µM (NEK1; [4]): 80%
- percent of control binding at 10 µM (PIK3C2G; [4]): 81%
Compound: Cn1ncnc1[C@H]1c2n[nH]c(=O)c3cc(F)cc(c23)N[C@@H]1c1ccc(F)cc1 [Talazoparib]
